Experimental data taken from PubChem BioAssay AID1278 (The Scripps Research Institute Molecular Screening Center, 2008).
Activity calls are given as the source filed them. How the calls were made is not given here.

Biological target: Neuropeptide Y receptor type 2 (Homo sapiens) (UniProt P49146)
Assay: NPY-Y2 antagonist potency, selectivity check, dose response, counter-screen for NPY-Y1 antagonist project, cell-based (AID 1278)
Conditions: NPY-Y2 expressing cells, antagonism, cell-based HTS

Sequence of Neuropeptide Y receptor type 2 (Homo sapiens) (P49146 whole entry, looked up): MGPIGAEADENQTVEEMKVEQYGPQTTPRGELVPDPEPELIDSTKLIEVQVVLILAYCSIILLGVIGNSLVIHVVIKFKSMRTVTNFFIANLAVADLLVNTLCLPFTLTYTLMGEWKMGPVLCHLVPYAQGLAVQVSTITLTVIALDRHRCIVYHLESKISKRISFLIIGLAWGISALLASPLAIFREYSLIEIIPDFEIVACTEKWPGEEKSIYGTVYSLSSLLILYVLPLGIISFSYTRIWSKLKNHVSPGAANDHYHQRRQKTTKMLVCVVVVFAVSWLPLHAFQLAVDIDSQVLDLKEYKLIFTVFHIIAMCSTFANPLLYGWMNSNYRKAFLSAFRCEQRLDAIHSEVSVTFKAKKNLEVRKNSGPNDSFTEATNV

CCc1cc(-c2[nH]ncc2-c2ccc3c(c2)OCO3)c(O)cc1O
IC50: < 35 µM (inactive)
